Here are results for eight compounds from patent publication US20250082660A1 (priority 2023, published 2025).

Counter-ions that a name gives are not always drawn. Like-named read-outs stand apart in the source and are kept apart here.

Data set [1] addresses T1, cytosolic phospholipase A2 (cPLA2, PLA2G4) (Homo sapiens, UniProt P47712).
T1 sequence (P47712 1-749): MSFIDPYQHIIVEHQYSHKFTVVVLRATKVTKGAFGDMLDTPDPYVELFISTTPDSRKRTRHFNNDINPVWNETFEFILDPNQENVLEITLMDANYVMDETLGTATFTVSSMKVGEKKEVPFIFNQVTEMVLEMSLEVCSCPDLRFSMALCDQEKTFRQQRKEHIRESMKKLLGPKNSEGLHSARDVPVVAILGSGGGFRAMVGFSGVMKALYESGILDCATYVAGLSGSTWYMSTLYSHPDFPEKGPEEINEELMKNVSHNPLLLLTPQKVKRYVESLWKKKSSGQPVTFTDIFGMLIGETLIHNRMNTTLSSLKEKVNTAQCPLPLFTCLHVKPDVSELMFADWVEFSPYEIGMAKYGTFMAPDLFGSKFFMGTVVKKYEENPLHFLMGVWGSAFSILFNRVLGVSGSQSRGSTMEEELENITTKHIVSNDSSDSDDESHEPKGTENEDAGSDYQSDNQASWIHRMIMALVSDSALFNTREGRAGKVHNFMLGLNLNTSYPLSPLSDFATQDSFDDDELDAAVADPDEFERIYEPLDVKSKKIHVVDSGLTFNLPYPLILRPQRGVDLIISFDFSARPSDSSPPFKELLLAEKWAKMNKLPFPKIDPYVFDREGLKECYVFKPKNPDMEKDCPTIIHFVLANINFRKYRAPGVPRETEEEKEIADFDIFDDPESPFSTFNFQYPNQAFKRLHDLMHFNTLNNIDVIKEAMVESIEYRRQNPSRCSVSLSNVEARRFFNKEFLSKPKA
Briefly: cPLA2 phosphorylation.

In the next data set the target is T2, CYP1A1 enzyme (Homo sapiens, UniProt P04798).
T2 sequence (P04798 1-512): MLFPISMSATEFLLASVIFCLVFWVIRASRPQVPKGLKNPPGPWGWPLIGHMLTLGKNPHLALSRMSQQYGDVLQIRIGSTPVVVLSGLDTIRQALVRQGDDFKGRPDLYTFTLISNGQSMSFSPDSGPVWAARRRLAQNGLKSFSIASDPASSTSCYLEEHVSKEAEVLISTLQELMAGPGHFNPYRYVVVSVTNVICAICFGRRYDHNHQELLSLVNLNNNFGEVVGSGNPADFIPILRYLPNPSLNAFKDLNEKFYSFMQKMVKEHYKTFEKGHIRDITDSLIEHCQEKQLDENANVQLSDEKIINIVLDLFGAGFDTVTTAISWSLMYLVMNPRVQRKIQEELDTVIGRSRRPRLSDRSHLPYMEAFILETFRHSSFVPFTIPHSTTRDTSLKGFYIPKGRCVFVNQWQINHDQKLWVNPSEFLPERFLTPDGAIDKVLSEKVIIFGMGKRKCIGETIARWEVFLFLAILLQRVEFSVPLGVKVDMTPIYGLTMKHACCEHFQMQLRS
The settings on record: cited from earlier work.

For data set [2] the following is noted: cited from earlier work.
For data set [3], the system named is loperamide-induced acute model mice. Type of data set: in vivo, C57BL/6J Mus musculus. The settings on record: oral loperamide 2.5 mg/kg, 0-9 h after treatment, mean±SEM, n=6. The method, then: Six-week-old male (18-22 g) C57BL/6J Mus musculus were obtained from Laboratory Animal Services Center, The Chinese University of Hong Kong. All mice were housed in an environmentally controlled room (22±1° C.; ˜ 50% relative humidity) with a 12-h light-dark cycle, and fed a normal rodent diet and water. Animal care was approved by the Committee on the Use of Human and Animal Subjects in Teaching and Research, Hong Kong Baptist University (REC/19-20/0300).
Mice were randomly assigned to the following four groups (n=6 per group): control group, loperamide group, loperamide+CDD-2101 group, and loperamide+Senna group. The mice in the control group were only orally treated with Milli-Q water. The other groups were orally administrated with loperamide (2.5 mg/kg body weight). CDD-2101 and Senna were administered based on the clinical dosages of MZRW and Senna, respectively, used in constipation patients. The CDD-2101 group was orally administered with 30 g/d/kg body weight. The Senna group was given 8 tablets/day.
All fecal pellets produced during the first 5 min were discarded. Then fecal samples were collected, and the frequency was recorded for the next 9 h. Fecal pellets were put into tubes set in dry ice. After collection, they were stored at −80° C. for further use. Gastrointestinal motility was calculated from pellet frequency. The secretion was determined by pellet water content.

The target of a further data set is T3, CYP1A2 (Homo sapiens, UniProt P05177).
T3 sequence (P05177 1-516): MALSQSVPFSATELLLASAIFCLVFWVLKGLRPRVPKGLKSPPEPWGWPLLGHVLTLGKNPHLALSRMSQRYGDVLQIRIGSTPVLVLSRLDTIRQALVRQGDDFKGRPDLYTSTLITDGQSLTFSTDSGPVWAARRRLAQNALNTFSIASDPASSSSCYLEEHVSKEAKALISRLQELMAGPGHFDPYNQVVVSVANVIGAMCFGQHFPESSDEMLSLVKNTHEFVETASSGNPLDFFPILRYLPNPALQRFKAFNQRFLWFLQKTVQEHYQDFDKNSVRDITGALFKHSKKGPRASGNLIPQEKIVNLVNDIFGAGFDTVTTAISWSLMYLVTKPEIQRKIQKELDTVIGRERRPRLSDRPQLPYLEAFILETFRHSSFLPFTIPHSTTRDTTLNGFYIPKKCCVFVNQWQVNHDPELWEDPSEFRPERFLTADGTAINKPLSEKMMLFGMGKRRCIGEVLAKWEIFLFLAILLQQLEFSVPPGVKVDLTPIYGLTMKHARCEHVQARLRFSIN
The settings on record: cited from earlier work.

Another data set addresses T4, ALOX5 (Homo sapiens, UniProt P09917).
T4 sequence (P09917 1-674): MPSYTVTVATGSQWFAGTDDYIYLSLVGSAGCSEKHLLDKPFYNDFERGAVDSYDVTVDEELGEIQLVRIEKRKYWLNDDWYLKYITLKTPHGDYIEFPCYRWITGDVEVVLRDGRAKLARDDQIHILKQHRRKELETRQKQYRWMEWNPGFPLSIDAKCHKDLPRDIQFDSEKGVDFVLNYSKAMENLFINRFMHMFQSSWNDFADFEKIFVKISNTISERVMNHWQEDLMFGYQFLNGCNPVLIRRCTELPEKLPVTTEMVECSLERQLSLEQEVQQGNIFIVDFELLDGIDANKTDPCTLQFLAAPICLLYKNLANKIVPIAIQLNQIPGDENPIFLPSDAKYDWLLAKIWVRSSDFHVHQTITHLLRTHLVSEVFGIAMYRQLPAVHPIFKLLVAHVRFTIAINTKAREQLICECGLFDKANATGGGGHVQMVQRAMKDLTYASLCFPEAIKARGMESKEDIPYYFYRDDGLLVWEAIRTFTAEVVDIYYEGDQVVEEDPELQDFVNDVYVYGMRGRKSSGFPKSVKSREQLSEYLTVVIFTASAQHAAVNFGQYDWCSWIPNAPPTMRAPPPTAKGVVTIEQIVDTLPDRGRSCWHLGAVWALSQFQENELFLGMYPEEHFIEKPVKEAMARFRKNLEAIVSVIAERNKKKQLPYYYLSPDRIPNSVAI
The settings on record: in vitro and in vivo; cited from earlier work.

Data set [4] is described as follows: Fecal phytochemistry: metabolism of Senna ingredients. Type of data set: in vivo, C57BL/6J Mus musculus. The settings on record: Senna group, feces. An excerpt: First, the phytochemical compounds in CDD-2101 and feces were characterized using the UHPLC/Q-TOF-MS with the same parameters as for the metabolomics analysis described in section 1.4. Potential active compounds were selected because of their frequent use in pharmacology study, and their high abundance in CDD-2101 and feces. Those compounds were confirmed by commercial standards. Second, the biological targets of these compounds were gathered by searching in BindingDB (https://www.bindingdb.org/) and STITCH (http://stitch.embl.de/). The candidate targets of constipation were gathered by searching on the keyword “constipation” in GeneCards (https://www.genecards.org/). Third, these targets were manually checked in full texts of relevant references. The confirmed proteins were considered to be the predicted targets of CDD-2101 against constipation.

Regarding `C[C@]12C[C@@H](O)[C@@H]3C[C@@]1(O[C@@H]1O[C@H](CO)[C@@H](O)[C@H](O)[C@H]1O)[C@@]3(COC(=O)c1ccccc1)C(=O)O2` [albiflorin], the “cPLA2 (PLA2G4) phosphorylation” value in data set [1] is on record as “stimulated”.

Turning to `COc1ccc([C@@H]2CC(=O)c3c(O)cc(O)cc3O2)cc1O` [hesperetin], the “binding to CYP1A1 enzyme” value on CYP1A1 enzyme is “bind”.

In the case of `COc1ccc([C@@H]2CC(=O)c3c(O)cc(O[C@@H]4O[C@H](CO[C@@H]5O[C@@H](C)[C@H](O)[C@@H](O)[C@H]5O)[C@@H](O)[C@H](O)[C@H]4O)cc3O2)cc1O` [hesperidin], in data set [2], the “metabolite formed in the colon” value is given as “hesperetin”.

Consider `CN(C)C(=O)C(CCN1CCC(O)(c2ccc(Cl)cc2)CC1)(c1ccccc1)c1ccccc1` [loperamide, Loperamide hydrochloride], for which, in data set [3], the “cumulative number of fecal pellet” value amounted to 21.5±2.7 pellets/9 h and the “fecal pellet water content” value came out at 48.2±2.1%.

For the compound `C=CCc1ccc(O)c(-c2cc(CC=C)ccc2O)c1` [magnolol], the “inhibition of CYP1A2 enzyme” value at CYP1A2 is “strongly inhibit”. The “binding to CYP1A1 enzyme” value on CYP1A1 enzyme (reported) is given as “bind”. Besides, the “cPLA2 (PLA2G4) phosphorylation” value in data set [1] is “stimulated”. The “inhibition of ALOX5 enzyme” value on ALOX5 is “strongly inhibit”.

For the compound `O=C1C[C@@H](c2ccc(O)cc2)Oc2cc(O)cc(O)c21` [naringenin], on CYP1A1 enzyme, the “binding to CYP1A1 enzyme” value was “bind”.

Consider `O=C(O)c1cc(O)c2c(c1)[C@H]([C@H]1c3cc(C(=O)O)cc(O)c3C(=O)c3c(O[C@@H]4O[C@H](CO)[C@@H](O)[C@H](O)[C@H]4O)cccc31)c1cccc(O[C@@H]3O[C@H](CO)[C@@H](O)[C@H](O)[C@H]3O)c1C2=O` [sennoside A], for which, in data set [4], the metabolite formed entry is given as “rhein”.

`O=C(O)c1cc(O)c2c(c1)[C@@H]([C@H]1c3cc(C(=O)O)cc(O)c3C(=O)c3c(O[C@@H]4O[C@H](CO)[C@@H](O)[C@H](O)[C@H]4O)cccc31)c1cccc(O[C@@H]3O[C@H](CO)[C@@H](O)[C@H](O)[C@H]3O)c1C2=O` [sennoside B]: the metabolite formed result in data set [4] is “rhein”.
